Assay results published in patent publication US11613552B2, “Pharmaceutical agents, compositions, and methods relating thereto” (Alltech, Inc., priority 2017, dated 2023).

Key:
Lepr^db/db mice = test: Chronic treatment: fasting blood glucose and HbA1c in Lepr^db/db mice; type: in vivo, mouse
Procedure: Male Lepr^db/db mice at 38 days of age were intraperitoneally (ip) injected daily with physiological saline ([…]) containing 0.2% DMSO, Compound #C, Compound #50, Compound #68, and/or Compound #43 (25 μg selenium or sulfur equivalents of each compound per kilogram body weight, diluted in sterile physiological saline) for periods ranging from 43-90 days. Body weights of the above treated mice were recorded daily using a balance and any visible abnormal animal gross morphology and walking behavior were monitored daily. After the treatments, animals were fasted overnight and then subjected to blood glucose or HbA1c assays, glucose tolerance tests or tissue collections.
For comparative studies of any potential anti-diabetic effects of Compounds #43, #69 and #70, male Lepr^db/db mice at 41 days of age were intraperitoneally (ip) injected daily with physiological saline ([…]) containing 0.2% DMSO, Compound #43, Compound #69, or Compound #70 (25 μg selenium of each compound per kilogram body weight, diluted in sterile physiological saline). After the treatments for 43 days, animals were fasted overnight and then subjected to blood glucose and glucose tolerance tests. After daily treatments of these compounds for 90 days, sera from these animals were collected and then subjected to blood HbA1c assays.
After treatment with physiological saline or compounds or after the injection of a bolus of glucose, a small drop of blood from each mouse was collected by snipping the mouse tail tip. Blood glucose levels were determined using a Glucometer with a maximum capability for glucose measurement of 600 mg/dL.
After saline or compound treatments, a small drop of blood from the mouse tail was collected in an EDTA-coated eppendorf tube (to prevent blood coagulation) (Fisher Scientific), and then subjected to a HbA1c assay using the Crystal Chem's or Kamiya's mouse glycated hemoglobin A1c ELISA kit, according to the manufacturer's protocol. Also after the final treatments, mouse serum was collected and subjected to HbA1c assay using the Kamiya Biomeidcal Company's mouse HbA1c kit, according to the manufacturer's protocol.

[1] = system: differentiated C2C12 cells; test: Glucose uptake in differentiated C2C12 (skeletal muscle) cells; type: cell-based, mouse
Procedure: The mouse myoblast C2C12 cells were purchased from the American Type Culture Collection (ATCC, Manassas, Va.). These cells were amplified in DMEM media supplemented with 10% FBS. Equal number of C2C12 cells were then seeded on 96-well plates (5000 cells/well) and cultured in 10% FBS DMEM media at 37° C. for 5 days. Cells were replenished daily with fresh 10% FBS DMEM media. At day 5 of culture, C2C12 cells were differentiated using 0.5% horse serum (Sigma)-containing DMEM media (differentiation media) continuing for 7 days with daily replacement of fresh differentiation media, as previously described (Misu et al, Cell Metabolism 12, 483-495, 2010). At day 7 post-differentiation, differentiated C2C12 cells were rinsed with PBS twice and pretreated without or with 0.006% DMSO (Compound #43 solvent) or Compound #43 (300 or 600 ppb) in serum-free glucose-free DMEM media overnight. Then these cells were washed once with PBS, and then treated without (basal) or with insulin (200 nM), Compound #43 (300 and 600 ppb), or both insulin and Compound #43 in glucose/phenol red-free DMEM media at 37° C. for 1.5 hr. After treatment, media was removed and cells were washed once with PBS and incubated with 1 mM 2-deoxyglucose (2DG) at room temperature for 30 min. […] Luminescent signals were recorded using a Bio-Tek luminometer.

Insrβ = target: T1, Insrβ (Mus musculus, UniProt P15208); test: ELISA of phospho-Insrβ in livers of Lepr^db/db mice; type: in vivo; conditions: 0.136 mg/kg ip daily
T1 construct: gastrocnemius skeletal muscle and liver samples were collected and stored at −80° C; from tissue; host or cells: gastrocnemius skeletal muscle (A22) and liver (A24) of Lepr db/db mice
Procedure: Male Lepr^db/db mice (C57BL/6J strain, purchased from The Jackson Laboratory) at postnatal day 38 were intraperitoneally injected daily with physiological saline ([…]) containing 0.2% DMSO, or 0.136 mg of Compound #43 per kilogram body weight, diluted in the sterile physiological saline) for 52 days. After the treatment, gastrocnemius skeletal muscle and liver samples were collected and stored at −80° C.
Frozen skeletal muscle and liver tissues were minced in sterile ice-old PBS containing complete proteinase and phosphatase inhibitors (Thermo-Fisher Scientific, Waltham, Mass.) and subjected to homogenization using a tissue homogenizer (Thermo-Fisher Scientific, Waltham, Mass.). These tissue homogenates were diluted in Themo-Fisher's premade RIPA buffer (1 part homogenate/2 part of RIPA buffer) containing complete proteinase/phosphatase inhibitors to extract the proteins. Proteins in the homogenates were extracted in RIPA buffer at 4° C. overnight. These overnight-extracted protein/tissue lysates were centrifuged at 12000×g for 30 min at 4° C., and the protein levels in the supernatant of these tissue lysates were determined using the Pierce Micro-BCA protein assay kit (Thermo Scientific-Piece Biotechnology, Rockford, Ill.) according to the manufacturer's protocol. […]

[2] = 25 μg selenium/kg ip daily for 43 days from 41 days of age (FIG. 5)
[3] = 25 μg selenium/kg ip daily, 3 months (FIG. 4)

T1 sequence (P15208 753-1372 limits assumed): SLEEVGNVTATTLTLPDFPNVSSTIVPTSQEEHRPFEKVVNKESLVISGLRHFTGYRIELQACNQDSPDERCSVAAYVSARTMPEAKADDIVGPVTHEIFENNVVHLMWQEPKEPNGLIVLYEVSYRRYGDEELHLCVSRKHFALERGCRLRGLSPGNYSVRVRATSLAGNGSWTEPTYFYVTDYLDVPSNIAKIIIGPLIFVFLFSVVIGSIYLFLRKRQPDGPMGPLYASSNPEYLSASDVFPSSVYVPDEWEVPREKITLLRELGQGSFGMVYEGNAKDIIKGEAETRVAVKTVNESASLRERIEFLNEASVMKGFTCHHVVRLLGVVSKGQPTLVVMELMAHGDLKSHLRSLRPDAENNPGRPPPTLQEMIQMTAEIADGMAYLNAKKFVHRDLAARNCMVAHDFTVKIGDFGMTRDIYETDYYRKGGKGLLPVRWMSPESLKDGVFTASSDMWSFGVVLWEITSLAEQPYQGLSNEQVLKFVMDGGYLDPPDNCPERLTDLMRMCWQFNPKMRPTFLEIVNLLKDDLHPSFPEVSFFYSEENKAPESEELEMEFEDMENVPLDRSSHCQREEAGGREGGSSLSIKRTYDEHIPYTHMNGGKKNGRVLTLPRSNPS
T1 sequence (P15208 28-748 partner limits assumed): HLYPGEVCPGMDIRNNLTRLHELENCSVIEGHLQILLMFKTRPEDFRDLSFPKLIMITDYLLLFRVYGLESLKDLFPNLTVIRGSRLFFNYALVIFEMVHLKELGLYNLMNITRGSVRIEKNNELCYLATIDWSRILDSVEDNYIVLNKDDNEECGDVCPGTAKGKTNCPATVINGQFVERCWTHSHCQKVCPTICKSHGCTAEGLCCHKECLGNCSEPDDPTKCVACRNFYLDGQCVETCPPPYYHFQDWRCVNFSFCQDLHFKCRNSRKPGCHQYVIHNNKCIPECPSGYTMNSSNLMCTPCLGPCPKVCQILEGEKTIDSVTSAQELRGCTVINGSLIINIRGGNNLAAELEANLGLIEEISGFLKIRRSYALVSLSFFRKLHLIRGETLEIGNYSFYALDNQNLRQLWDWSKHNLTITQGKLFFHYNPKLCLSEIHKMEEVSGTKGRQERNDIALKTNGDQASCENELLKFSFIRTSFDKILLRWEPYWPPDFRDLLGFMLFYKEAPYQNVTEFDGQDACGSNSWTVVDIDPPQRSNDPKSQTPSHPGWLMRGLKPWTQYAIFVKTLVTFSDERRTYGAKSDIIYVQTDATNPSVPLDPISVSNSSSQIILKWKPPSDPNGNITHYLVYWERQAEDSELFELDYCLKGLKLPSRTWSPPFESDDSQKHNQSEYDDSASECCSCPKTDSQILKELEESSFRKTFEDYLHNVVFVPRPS

With `C[Se]C[C@H]1O[C@@H](n2cnc3c(N)ncnc32)C(OC(C)=O)C1OC(C)=O` (stereo partly drawn) [Compound #43, Adenosine, 5′-Se-methyl-5′-selino-, 2′,3′-diacetate] the “effect on fasting blood glucose levels” value (Lepr^db/db mice; 25 μg selenium or sulfur/kg ip daily, 3 months (FIG. 4)) was “statistically significant decrease in fasting blood glucose levels”, the “decrease in fasting blood glucose levels vs saline” value (Lepr^db/db mice; [2]) was ~35% and the “fasting blood glucose levels” value (Lepr^db/db mice; [2]) was 188 mg/dL. The “effect on HbA1c levels” value (Lepr^db/db mice; 25 μg selenium/kg ip daily for 90 days from 41 days of age (FIG. 5)) was “significant decrease of HbA1c levels”, the “reduction in serum HbA1c levels compared to saline” value (Lepr^db/db mice; 25 μg selenium/kg ip daily from day 38, measured at 90 days of age (FIG. 3)) was ~20% and the “reduction of fasting blood glucose levels compared to controls” value (Lepr^db/db mice; 25 μg selenium/kg ip daily from day 38, measured at day 81 (FIG. 3)) was “about 45%”. The “decrease of blood HbA1c levels compared to saline” value (Lepr^db/db mice; [3]) was “about 30%”, the fasting glucose levels (Lepr^db/db mice; [3]) was “about 135 mg/dL” and the “increase in glucose uptake” value ([1]; co-treatment insulin 200 nM and Compound #43 300 ppb) was 63%. The “increase of glucose uptake” value ([1]; co-treatment insulin 200 nM and Compound #43 600 ppb) was 79%, the “increase of phosphorylated Insrβ at Tyrosine 1146 in liver” value (Insrβ; 52 days (FIG. 22A)) was ~2.9 fold and the “increase of phosphorylated Insrβ at Tyrosine 1150/1151 in liver” value (Insrβ; 52 days (FIG. 22B)) was ~2.95 fold.
